Experimental findings from ChEMBL document CHEMBL1201862, “PubChem BioAssay data set” (2004) are described below.

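Briefly, cells in 96-well plates were exposed to five compound concentrations for 48 h, and endpoints were estimated by linear interpolation. GI50 marks 50% less growth.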 Calls of active or inactive are those of the source. No stated cut-off is given here; in the data, active = GI50 up to about 1.1 µM and inactive = higher.

Assay in all cases: NCI anticancer screen, dose series, 48 h
Assay [1] has as its system SN12C.
Assay [2] deals with SK-MEL-2.
The subject of assay [3] is K562.
For assay [4], the system named is LOX IMVI.
Assay [5] has as its system HL-60.
In assay [6] the test system is OVCAR-8.
Assay [7] relates to OVCAR-3.
Assay [8] deals with Malme-3M.
In assay [9] the test system is CCRF-CEM.
The subject of assay [10] is A498.
For assay [11], the system named is IGROV-1.
The test system of assay [12] is HCC 2998.
The test system of assay [13] is OVCAR-4.
The test system of assay [14] is RXF 393.
The subject of assay [15] is NCI/ADR-RES.
For assay [16], the system named is NCI-H522.
For assay [17], the system named is NCI-H23.
The test system of assay [18] is SR.
Assay [19] has as its system TK-10.
The subject of assay [20] is ACHN.

Take `CCCCCOc1ccc(/C=N\c2ccc(CCc3ccc(/N=C/c4ccc(OCCCCC)cc4)cc3)cc2)cc1`: the GI50 in assay [1], in assay [2], in [3], in assay [4], in assay [5] and in assay [6] was > 100 µM (inactive) throughout. For the same compound, the GI50 in [7], in assay [8], in assay [9], in assay [10], in assay [11] and in [12] was > 100 µM (inactive) in each case. The GI50 in assay [13], in [14], in [15], in assay [16] and in assay [17] was > 100 µM (inactive) each time.

Consider `Brc1ccc2c(c1)[C@H]1CCc3c([nH]c4ccccc34)[C@H]1N2`, for which the GI50 in assay [1] is 13 µM (inactive); in assay [2] it was 16.6 µM (inactive); in [3] it was 4.85 µM (inactive); in assay [4] it was 4.38 µM (inactive); in [6], 13.3 µM (inactive); in [7], 10.6 µM (inactive). Further, the GI50 in assay [8] was 10.7 µM (inactive); in [9], 3.91 µM (inactive); in assay [11], 0.369 µM (active); in [18], 0.889 µM (active); in assay [12] it was 12.9 µM (inactive); in assay [13] it was 13 µM (inactive). In addition, the GI50 in [19] was 11.2 µM (inactive); in assay [14] it was 12 µM (inactive); in [15], 14.2 µM (inactive); in assay [17], 12.4 µM (inactive); in assay [20], 12.5 µM (inactive).

As for `C[N+]1([O-])[C@H]2CC(OC(=O)[C@H](CO)c3ccccc3)C[C@H]1[C@H]1O[C@H]12` (stereo not given in full), the GI50 in assay [1], in assay [2], in assay [3], in assay [4], in assay [6] and in [7] was > 100 µM (inactive) throughout. For the same compound, the GI50 in [8] is > 100 µM (inactive); in assay [9], 21.2 µM (inactive); in [10], > 100 µM (inactive); in [11] it was > 100 µM (inactive); in [18], > 100 µM (inactive); in assay [13] it was > 100 µM (inactive). Besides, the GI50 in [19], in [14], in [15], in assay [16], in [17] and in assay [20] was > 100 µM (inactive) in each case.

As for `COC(=O)/C=C\n1ncc(=O)[nH]c1=O`, the GI50 in [1], in assay [2], in assay [3], in [5], in assay [6] and in [7] was > 100 µM (inactive) in each case. In addition, the GI50 in assay [8] is > 100 µM (inactive); in assay [10], > 100 µM (inactive); in [11], > 100 µM (inactive); in assay [18], > 10 µM (inactive); in [12], > 100 µM (inactive); in [13] it was > 100 µM (inactive). Besides, the GI50 was > 100 µM (inactive) in [19]; > 100 µM (inactive) in assay [15]; 52.1 µM (inactive) in [16]; > 100 µM (inactive) in [17]; > 100 µM (inactive) in assay [20].

`CC(=O)Nc1ccc(Sc2nnc(NC(C)=O)s2)cc1`: the GI50 in assay [1], in assay [3], in [5], in [6], in [9] and in assay [11] was > 100 µM (inactive) each time. For the same compound, the GI50 in assay [18], in assay [12], in [13], in [19], in assay [15] and in assay [16] was > 100 µM (inactive) each time. Besides, in assay [20], the GI50 was > 100 µM (inactive).

In the case of `CCOC(=O)c1csc(NC(=O)CN2CCN(c3ccccc3)CC2)n1`, the GI50 in assay [2] is > 100 µM (inactive); in assay [3], > 100 µM (inactive); in assay [4], > 100 µM (inactive); in assay [5], 70.6 µM (inactive); in assay [6], > 100 µM (inactive); in assay [7], > 100 µM (inactive). Also, the GI50 is > 100 µM (inactive) in assay [8]; > 100 µM (inactive) in assay [9]; > 100 µM (inactive) in [10]; 85.9 µM (inactive) in [11]; > 100 µM (inactive) in assay [18]; > 100 µM (inactive) in assay [12]. The GI50 in [13] was 99.1 µM (inactive); in assay [19], > 100 µM (inactive); in assay [14], > 100 µM (inactive); in [15], > 100 µM (inactive); in assay [17], > 100 µM (inactive); in [20], > 100 µM (inactive).

`CN(C)CCCNC(=O)N/N=C\c1cccc2ccccc12`: the GI50 in assay [1], in assay [3], in assay [4], in assay [5], in [6] and in assay [8] was > 10 µM (inactive) throughout. In addition, the GI50 in assay [9], in assay [10], in assay [11], in assay [18], in assay [12] and in [13] was > 10 µM (inactive) throughout. For the same compound, the GI50 in assay [19], in [14], in assay [15], in [16] and in assay [20] was > 10 µM (inactive) each time.

`CN(C)CCNC(=O)c1cccc2c(=O)c3ccccc3oc12`: the GI50 in [1] is 24.3 µM (inactive); in [2], 35.9 µM (inactive); in [3], 40.8 µM (inactive); in assay [4], 20.7 µM (inactive); in assay [5], 29.2 µM (inactive); in assay [6] it was 27.7 µM (inactive). The GI50 in [7] was 37.8 µM (inactive); in assay [8], 25 µM (inactive); in assay [9] it was 35.4 µM (inactive); in [10], 21.1 µM (inactive); in [11], 40.6 µM (inactive); in [12], 60 µM (inactive). Further, the GI50 is 34.5 µM (inactive) in assay [13], 43.1 µM (inactive) in assay [14], 27.6 µM (inactive) in assay [15] and 35.3 µM (inactive) in [17].

As for `COc1cc(C2c3cc4c(cc3[C@@H](Nc3ccccc3)C3COC(=O)[C@H]23)OCO4)cc(OC)c1O` (stereo not given in full), the GI50 in assay [1] is 0.485 µM (active); in assay [2] it was 2.79 µM (inactive); in assay [3] it was 0.931 µM (active); in assay [4] it was 0.414 µM (active); in [5], 0.14 µM (active); in assay [6], 1.18 µM (inactive). Further, the GI50 in assay [7] is 2.48 µM (inactive); in assay [8], 1.41 µM (inactive); in assay [9] it was 0.0279 µM (active); in [10], 0.221 µM (active); in assay [11], 2.21 µM (inactive); in assay [12], 1.23 µM (inactive). Besides, the GI50 in [13] was 5.6 µM (inactive); in [14], 1.73 µM (inactive); in [15], 2.07 µM (inactive); in assay [16], 1.24 µM (inactive); in [17], 0.238 µM (active).
